“And” between values parts separate entries of the source, which are not always exact repeats. Identical values can stand only once.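 Where inhibition never reached the appropriate level, the endpoint shown equals the highest concentration tested. Otherwise, values were interpolated linearly from a five-concentration, 48-hour dose response in 96-well plates. Abbreviation: GI50, concentration required for 50% inhibition of growth.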 The source made the active and inactive calls. Cut-off read from the data, not from the text of the source: active = GI50 up to about 1.1 µM and inactive = higher.
Columns and labels:
Experiment in all cases: inhibition of tumour cell growth, NCI panel, 48 h
786-0 = test system: 786-0
A498 = test system: A498
A549 = test system: A549
ACHN = test system: ACHN
BT-549 = test system: BT-549
CAKI-1 = test system: CAKI-1
CCRF-CEM = test system: CCRF-CEM
COLO 205 = test system: COLO 205
DU-145 = test system: DU-145
EKVX = test system: EKVX
HCC 2998 = test system: HCC 2998
HCT-116 = test system: HCT-116
HCT-15 = test system: HCT-15
HL-60 = test system: HL-60
HOP-62 = test system: HOP-62
HOP-92 = test system: HOP-92
HT-29 = test system: HT-29
IGROV-1 = test system: IGROV-1
K562 = test system: K562
KM12 = test system: KM12
LOX IMVI = test system: LOX IMVI
M14 = test system: M14
MCF7 = test system: MCF7
MDA-MB-435 = test system: MDA-MB-435
MDA-N = test system: MDA-N
MOLT-4 = test system: MOLT-4
NCI-H226 = test system: NCI-H226
NCI-H23 = test system: NCI-H23
NCI-H460 = test system: NCI-H460
NCI/ADR-RES = test system: NCI/ADR-RES
OVCAR-3 = test system: OVCAR-3
OVCAR-5 = test system: OVCAR-5
OVCAR-8 = test system: OVCAR-8
PC-3 = test system: PC-3
RPMI-8226 = test system: RPMI-8226
SF-295 = test system: SF-295
SF-539 = test system: SF-539
SK-MEL-28 = test system: SK-MEL-28
SK-MEL-2 = test system: SK-MEL-2
SK-MEL-5 = test system: SK-MEL-5
SK-OV-3 = test system: SK-OV-3
SN12C = test system: SN12C
SNB-19 = test system: SNB-19
SNB-75 = test system: SNB-75
SR = test system: SR
SW-620 = test system: SW-620
T47D = test system: T47D
U-251 = test system: U-251
UACC-257 = test system: UACC-257
UACC-62 = test system: UACC-62
UO-31 = test system: UO-31
MDA-MB-231 = test system: MDA-MB-231
NCI-H522 = test system: NCI-H522
RXF 393 = test system: RXF 393
TK-10 = test system: TK-10
Malme-3M = test system: Malme-3M
OVCAR-4 = test system: OVCAR-4
SF-268 = test system: SF-268

In the case of `Nc1cc(N2CCOCC2)nc(=O)n1-c1ccc(Cl)cc1`, the GI50 (786-0) was > 100 µM (inactive), the GI50 (A498) was > 100 µM (inactive) and the GI50 (A549) was > 100 µM (inactive). For the same molecule, the GI50 (ACHN) was > 100 µM (inactive), the GI50 (BT-549) was > 100 µM (inactive) and the GI50 (CAKI-1) was > 100 µM (inactive). For the same molecule, the GI50 (CCRF-CEM) was > 100 µM (inactive), the GI50 (COLO 205) was > 100 µM (inactive) and the GI50 (DU-145) was > 100 µM (inactive). The GI50 (EKVX) was > 100 µM (inactive), the GI50 (HCC 2998) was > 100 µM (inactive) and the GI50 (HCT-116) was > 100 µM (inactive). For the same molecule, the GI50 (HCT-15) was > 100 µM, the GI50 (HL-60) was 8.38 µM (inactive) and the GI50 (HOP-62) was > 100 µM (inactive). For the same molecule, the GI50 (HOP-92) was > 100 µM (inactive), the GI50 (HT-29) was > 100 µM (inactive) and the GI50 (IGROV-1) was > 100 µM (inactive). The GI50 (K562) was > 100 µM (inactive), the GI50 (KM12) was > 100 µM (inactive) and the GI50 (LOX IMVI) was > 100 µM (inactive). For the same molecule, the GI50 (M14) was > 100 µM (inactive), the GI50 (MCF7) was > 100 µM (inactive) and the GI50 (MDA-MB-435) was > 100 µM (inactive). The GI50 (MDA-N) was > 100 µM (inactive), the GI50 (MOLT-4) was > 100 µM (inactive) and the GI50 (NCI-H226) was > 100 µM (inactive). The GI50 (NCI-H23) was > 100 µM (inactive), the GI50 (NCI-H460) was > 100 µM (inactive) and the GI50 (NCI/ADR-RES) was > 100 µM (inactive). The GI50 (OVCAR-3) was > 100 µM (inactive), the GI50 (OVCAR-5) was > 100 µM (inactive) and the GI50 (OVCAR-8) was > 100 µM (inactive). For the same molecule, the GI50 (PC-3) was > 100 µM (inactive), the GI50 (RPMI-8226) was > 100 µM (inactive) and the GI50 (SF-295) was > 100 µM (inactive). The GI50 (SF-539) was > 100 µM (inactive), the GI50 (SK-MEL-28) was > 100 µM (inactive) and the GI50 (SK-MEL-2) was > 100 µM (inactive). For the same molecule, the GI50 (SK-MEL-5) was > 100 µM (inactive), the GI50 (SK-OV-3) was > 100 µM (inactive) and the GI50 (SN12C) was > 100 µM (inactive). The GI50 (SNB-19) was > 100 µM (inactive), the GI50 (SNB-75) was > 100 µM (inactive) and the GI50 (SR) was > 100 µM (inactive). The GI50 (SW-620) was > 100 µM (inactive), the GI50 (T47D) was > 100 µM (inactive) and the GI50 (U-251) was > 100 µM (inactive). The GI50 (UACC-257) was > 100 µM (inactive), the GI50 (UACC-62) was > 100 µM (inactive) and the GI50 (UO-31) was > 100 µM (inactive).
`CC1CCC2(NC1)OC1CC3C4CC=C5CC(O)CCC5(C)C4CCC3(C)C1C2C` (stereo not given) was tested, and the GI50 (BT-549) was 32.8 µM (inactive) and 48.5 µM (inactive), the GI50 (CCRF-CEM) was 12.4 µM (inactive) and 15.2 µM (inactive) and the GI50 (COLO 205) was 58.5 µM (inactive) and 40.6 µM (inactive). For the same molecule, the GI50 (EKVX) was 22.5 µM (inactive) and 37.4 µM (inactive), the GI50 (HCT-116) was 18.8 µM (inactive) and 9.86 µM (inactive) and the GI50 (HCT-15) was 32.5 µM and 38.8 µM. For the same molecule, the GI50 (HL-60) was 15.1 µM (inactive) and 11.6 µM (inactive), the GI50 (HOP-92) was 19.5 µM (inactive) and 17.5 µM (inactive) and the GI50 (HT-29) was 24.1 µM (inactive) and 12.5 µM (inactive). The GI50 (IGROV-1) was 32.5 µM (inactive) and 35 µM (inactive), the GI50 (K562) was 14.9 µM (inactive) and the GI50 (M14) was 76.6 µM (inactive) and 42.1 µM (inactive). The GI50 (MCF7) was 23.2 µM (inactive) and 42.9 µM (inactive), the GI50 (MDA-MB-231) was 12.8 µM (inactive) and 24.9 µM (inactive) and the GI50 (MOLT-4) was 18.3 µM (inactive) and 18.6 µM (inactive). For the same molecule, the GI50 (NCI-H226) was 54 µM (inactive) and 27.8 µM (inactive), the GI50 (NCI-H23) was 39.4 µM (inactive) and 37.1 µM (inactive) and the GI50 (NCI-H460) was 25.9 µM (inactive) and 14.1 µM (inactive). The GI50 (NCI-H522) was 31.1 µM (inactive) and 22.4 µM (inactive), the GI50 (NCI/ADR-RES) was 13.2 µM (inactive) and 14.4 µM (inactive) and the GI50 (OVCAR-5) was 39.1 µM (inactive) and 40.3 µM (inactive). For the same molecule, the GI50 (PC-3) was 22.7 µM (inactive) and 34.9 µM (inactive), the GI50 (RPMI-8226) was 20.6 µM (inactive) and 10.9 µM (inactive) and the GI50 (RXF 393) was 25.2 µM (inactive) and 16.8 µM (inactive). The GI50 (SF-295) was 24.9 µM (inactive) and 18.7 µM (inactive), the GI50 (SF-539) was 17.3 µM (inactive) and 10.9 µM (inactive) and the GI50 (SK-MEL-2) was 29.9 µM (inactive) and 19.5 µM (inactive). The GI50 (SK-OV-3) was 24.8 µM (inactive) and 15.7 µM (inactive), the GI50 (SN12C) was 15 µM (inactive) and 22.8 µM (inactive) and the GI50 (SNB-75) was 4.72 µM (inactive). For the same molecule, the GI50 (SR) was 4 µM (inactive) and 2.87 µM (inactive), the GI50 (SW-620) was 18.5 µM (inactive) and 27.8 µM (inactive) and the GI50 (T47D) was 23.4 µM (inactive) and 17.5 µM (inactive). For the same molecule, the GI50 (TK-10) was 12.4 µM (inactive) and 20.4 µM (inactive), the GI50 (UACC-257) was 55.8 µM (inactive) and 49.1 µM (inactive) and the GI50 (UACC-62) was 27.2 µM (inactive) and 18.1 µM (inactive).
In the case of `FC(F)(Sc1ccccc1)c1nc2ccccc2o1`, the GI50 (786-0) was 91.6 µM (inactive), the GI50 (A498) was 92.7 µM (inactive) and the GI50 (A549) was 30.1 µM (inactive). For the same molecule, the GI50 (ACHN) was 47.4 µM (inactive), the GI50 (BT-549) was 55.5 µM (inactive) and the GI50 (CAKI-1) was > 100 µM (inactive). For the same molecule, the GI50 (CCRF-CEM) was 19.4 µM (inactive), the GI50 (COLO 205) was > 100 µM (inactive) and the GI50 (DU-145) was 67.8 µM (inactive). For the same molecule, the GI50 (HCC 2998) was 43.3 µM (inactive), the GI50 (HCT-116) was 28.6 µM (inactive) and the GI50 (HCT-15) was 22 µM. For the same molecule, the GI50 (HOP-62) was > 100 µM (inactive), the GI50 (HOP-92) was 12.5 µM (inactive) and the GI50 (HT-29) was 33.6 µM (inactive). The GI50 (IGROV-1) was > 100 µM (inactive), the GI50 (K562) was 27 µM (inactive) and the GI50 (KM12) was 57 µM (inactive). The GI50 (M14) was 68.9 µM (inactive), the GI50 (MCF7) was 35.2 µM (inactive) and the GI50 (MDA-MB-231) was > 100 µM (inactive). The GI50 (MDA-MB-435) was 95.3 µM (inactive), the GI50 (MDA-N) was 82.6 µM (inactive) and the GI50 (MOLT-4) was 13.8 µM (inactive). The GI50 (Malme-3M) was 51.1 µM (inactive), the GI50 (NCI-H226) was 46.9 µM (inactive) and the GI50 (NCI-H23) was 91 µM (inactive). For the same molecule, the GI50 (NCI-H460) was 55.5 µM (inactive), the GI50 (NCI-H522) was 34.6 µM (inactive) and the GI50 (NCI/ADR-RES) was 18.6 µM (inactive). The GI50 (OVCAR-3) was 34.4 µM (inactive), the GI50 (OVCAR-4) was 97.1 µM (inactive) and the GI50 (OVCAR-5) was 59.7 µM (inactive). For the same molecule, the GI50 (OVCAR-8) was 83.4 µM (inactive), the GI50 (PC-3) was 35.5 µM (inactive) and the GI50 (RPMI-8226) was 40.3 µM (inactive). The GI50 (RXF 393) was 28.5 µM (inactive), the GI50 (SF-268) was > 100 µM (inactive) and the GI50 (SF-295) was 48.5 µM (inactive). For the same molecule, the GI50 (SF-539) was 63.8 µM (inactive), the GI50 (SK-MEL-28) was > 100 µM (inactive) and the GI50 (SK-MEL-2) was 67.8 µM (inactive). For the same molecule, the GI50 (SK-MEL-5) was 50 µM (inactive), the GI50 (SK-OV-3) was 20.8 µM (inactive) and the GI50 (SN12C) was 74.5 µM (inactive). For the same molecule, the GI50 (SR) was 22 µM (inactive), the GI50 (SW-620) was 61.1 µM (inactive) and the GI50 (T47D) was > 100 µM (inactive). The GI50 (TK-10) was 75.2 µM (inactive), the GI50 (U-251) was 21.9 µM (inactive) and the GI50 (UACC-257) was > 100 µM (inactive). For the same molecule, the GI50 (UACC-62) was 67.8 µM (inactive) and the GI50 (UO-31) was 49 µM (inactive).

Source: ChEMBL document CHEMBL1201862, “PubChem BioAssay data set” (2004)
